Assay results as given in patent EP4796125A1, “TREATMENT OF PATIENT WITH NEGATIVE P53 GENE MUTATION, POSITIVE KRAS GENE MUTATION AND POSITIVE BRCA MUTATION” (Ascentawits Pharmaceuticals, Ltd., priority 2023, dated 2025).
Peptide text beside a SMILES is read from it. * marks the point of attachment. Cbz = O=C(OCc1ccccc1)*

Experiments:
NCI-H460 cells = assay: In vitro proliferation under normoxia conditions (CTG, 72 hours), Example 29; format: cell-based
Description: (§1) • 1) NCI-H460 and NCI-H460 P53KO # 1 cell suspensions were added to 96-well plate (100 µL per well), with a cell density of 2000 cells/well. • 2) The cells were cultured overnight in a 37°C, 5% CO2 incubator. • 3) Compound Treatment
(§2) Monotherapy: 24 hours after cell plating, each well was supplemented with 99.5 µL of growth medium. Then, 0.5 µL of test compounds at different concentrations was added. The plate was gently shaken to ensure even mixing, and then placed in a 37°C, 5% CO2 incubator.
(§3) Combination therapy: 24 hours after cell plating, each well was supplemented with 99 µL of growth medium. Then, 0.5 µL of the combination compound was added. The plate was gently shaken to ensure even mixing, and then placed in an incubator for 2 hours. Then, 0.5µL of test compounds at different concentrations was added. The plate was gently shaken to ensure even mixing, and then placed in a 37°C, 5% CO2 incubator. • 4) The cell plate was placed in the incubator for 72 hours. • 5) The cell plate to be tested was placed at room temperature and equilibrated for 30 minutes, and 100 µL of medium was discarded from each well. • 6) 25 µL of CTG reagent was added to each well, placed at a fast shaker to shake for 2 minutes, and placed at room temperature for 30 minutes (protected from light). • 7) The chemiluminescence signal value was read using a multifunctional microplate reader with a reading time of 1000 ms. • 8) IC50 (half maximal inhibitory concentration) values were calculated using GraphPad Prism 5 software.

NCI-H460 P53KO #1 cells = assay: as above; format: cell-based, human; details: Table 25
Description: as §1, §2, §3

[1] = test system: RAD51 protein in H460 cells; assay: WB detection of RAD51 protein (level, degradation with MG-132, half-life with Cycloheximide); format: cell-based; details: 0.1 nM AST-3424, 5 µM Nutlin-3, then 5 µM MG-132 for 6 hours (Figure 21)
Description: In the first experiment, the second experiment and the third experiment about the effect of the combination of AST-3424 and Nutlin-3 on Ser15-p53, Ser20-p53, Total p53, MDM2, and p21 proteins in H460 cells in Example 21, the applicant also performed WB detection of RAD51 protein.
• 1) H460 cell suspension was added to a 24-well plate, with a cell density of 100000 cells/well and 995 µL of medium per well. • 2) The cells were cultured overnight in a 37°C, 5% CO2 incubator. • 3) Compound Treatment
Monotherapy: 24 hours after cell plating, 5 µL of test compounds at different concentrations was added: 1% DMSO, 0.1 nM AST-3424, and 5 µM Nutlin-3. The plate was gently shaken to ensure even mixing, and then placed in a 37°C, 5% CO2 incubator. After culturing for another 24 hours, the cells were collected.
Combination therapy: 24 hours after cell plating, • Adding 0.1 nM AST-3424 for pre-treatment for 2 hours, and then adding 5 µM Nutlin-3 for co-treatment for 22 hours; • Adding 1% DMSO and 5 µM MG-132 for co-treatment for 24 hours; • Adding 0.1 nM AST-3424 and 5 µM MG-132 for co-treatment for 24 hours; • Adding 5 µM Nutlin-3 and 5 µM MG-132 for co-treatment for 24 hours; • Adding 0.1 nM AST-3424 for pre-treatment for 2 hours, and then adding 5 µM Nutlin-3 for treatment for 16 hours, and then adding 5 µM MG-132 for co-treatment for 6 hours. […]

H460 cells = assay: In vitro proliferation inhibition experiment (CTG, 72 hours), Example 20; format: cell-based; details: Homo sapiens, NCI-H460, read-out: Inhibition rate result / %
Description: (§4) • 1) H460 and HPAF-II cell suspensions were added to a 96-well plate (100 µL per well), with cell densities of 2000 cells/well and 20000 cells/well, respectively. • 2) The cells were cultured overnight in a 37°C, 5% CO2 incubator. • 3) Compound Treatment
(§5) Combination therapy: 24 hours after cell plating, each well was supplemented with 99 µL of growth medium. Then, 0.5 µL of Nutlin-3 or RITA was added to each well. The plate was gently shaken to ensure even mixing, and then placed in an incubator for 2 hours. Then, 0.5 µL of test compounds at different concentrations was added. The plate was gently shaken to ensure even mixing, and then placed in a 37°C, 5% CO2 incubator.
(§6) Monotherapy: 24 hours after cell plating, each well was supplemented with 99.5 µL of growth medium. Then, 0.5 µL of test compounds at different concentrations was added. The plate was gently shaken to ensure even mixing, and then placed in a 37°C, 5% CO2 incubator. • 4) The cell plate was placed in the incubator for 72 hours. • 5) The cell plate to be tested was placed at room temperature and equilibrated for 30 minutes, and 100 µL of medium was discarded from each well. • 6) 25 µL of CTG reagent was added to each well, placed on a fast shaker to shake for 2 minutes, and placed at room temperature for 30 minutes (protected from light). • 7) The chemiluminescence signal value was read using a multifunctional microplate reader with a reading time of 1000 ms, and the corresponding inhibition rate data were calculated.

HPAF-II cells = assay: as above; format: cell-based, human; details: Homo sapiens, Table 15, HPAF-II, read-out: Inhibition rate/%
Description: as §4, §5, §6

[2] = test system: NRF2 and AKR1C3 in HPAF II cells; details: 0.875, 1.75, 3.5, 7 µM SFN, overnight, with increasing concentration
Description: A solution of SFN compound (Sulforaphane, NRF2 activator) was added to HPAF II cell suspension. The mixture was cultured overnight in a 37°C, 5% CO2 incubator. The cell protein lysate was collected for Western Blotting (WB) detection. The experiment consisted of five groups: 0.5% DMSO, 0.875 µM SFN, 1.75 µM SFN, 3.5 µM SFN, and 7 µM SFN. HPAF II cells were treated with different concentrations of the NRF2 activator SFN, and then subjected to Western Blotting to detect the expressions of NRF2 and AKR1C3.

[3] = test system: cell lines and mouse tumor models of BRCA pathogenic mutations; details: in vitro and in vivo pharmacodynamic experiments; data of WO2023174319A; cited from earlier work

## CN(C)C(=O)c1cccc(Oc2cc3c(cc2[N+](=O)[O-])OCCC3OP(=O)(N2CC2)N2CC2)c1 (stereo not shown) [Compound C]
NCI-H460 cells; Homo sapiens, Table 25, normoxia, alone or + 3 µM AST-3021
  IC50: 2.05 nM
NCI-H460 cells; Table 25, IC50 ratio
  Ratio, Compound C/AST-3424: 4.77
NCI-H460 P53KO #1 cells; Homo sapiens, NCI-H460 P53KO # 1, normoxia, alone or + 3 µM AST-3021
  IC50: 36.1 nM
NCI-H460 P53KO #1 cells; IC50 in NCI-H460 P53KO # 1 / NCI-H460
  Ratio, knockout / wild-type: 17.60
NCI-H460 P53KO #1 cells; NCI-H460 P53KO # 1, IC50 ratio
  Ratio, Compound C/AST-3424: 6.62

## CC(C)C[C@@H](C=O)NC(=O)[C@H](CC(C)C)NC(=O)[C@H](CC(C)C)NC(=O)OCc1ccccc1 [MG-132] (Cbz-Leu-Leu-Leu-aldehyde)
[1]
  RAD51 protein level after addition of MG-132: reverses the downregulation of RAD51 protein

## OCc1ccc(-c2ccc(-c3ccc(CO)s3)o2)s1 [RITA]
H460 cells; Table 13, H460, group 1: AST 0.5 nM, RITA 0.025 µM, AST + RITA 0.5+0.025
  inhibition at 0.025 µM: 22.3%
H460 cells; Table 13, H460, group 2: AST 0.5 nM, RITA 0.05 µM, AST + RITA 0.5+0.05
  inhibition at 0.05 µM: 22.4%
HPAF-II cells; group 1: AST 60 nM, RITA 2.5 µM, AST + RITA 60+ 2.5
  inhibition at 2.5 µM: 2.86%
HPAF-II cells; group 2: AST 60 nM, RITA 5 µM, AST + RITA 60+ 5
  inhibition at 5 µM: 5.56%

## C[S+]([O-])CCCCN=C=S (stereo not shown) [SFN, Sulforaphane]
[2]
  expression of AKR1C3: also increases simultaneously
  expression of NRF2: increases significantly

## Cn1c(COP(=O)(NCCBr)NCCBr)cnc1[N+](=O)[O-] [TH-302]
[3]
  sensitivity of cell lines and mouse tumor models of BRCA pathogenic mutations: more sensitive
